Measured values: US12485169B2, “Compounds” (GREY WOLF THERAPEUTICS LIMITED, priority 2018, dated 2025)

target: T1, Purified ERAP1 (37-941)-10His (ERAP1) (Homo sapiens, UniProt Q9NZ08); assay: ERAP1 mediated hydrolysis of an amide substrate (10-mer inhibition assay), biochemical system; settings: 10-mer substrate, 23° C., 1 h, excitation 279 nm / emission 355 nm; read-out: IC50 vs Decapeptide WRVYEKC(Dnp)ALK-acid (where Dnp is Dinitrophenyl maleimide) (10-mer)
T1 construct: Purified ERAP1 (37-941)-10His (ERAP1)
T1 sequence (Q9NZ08 37-941): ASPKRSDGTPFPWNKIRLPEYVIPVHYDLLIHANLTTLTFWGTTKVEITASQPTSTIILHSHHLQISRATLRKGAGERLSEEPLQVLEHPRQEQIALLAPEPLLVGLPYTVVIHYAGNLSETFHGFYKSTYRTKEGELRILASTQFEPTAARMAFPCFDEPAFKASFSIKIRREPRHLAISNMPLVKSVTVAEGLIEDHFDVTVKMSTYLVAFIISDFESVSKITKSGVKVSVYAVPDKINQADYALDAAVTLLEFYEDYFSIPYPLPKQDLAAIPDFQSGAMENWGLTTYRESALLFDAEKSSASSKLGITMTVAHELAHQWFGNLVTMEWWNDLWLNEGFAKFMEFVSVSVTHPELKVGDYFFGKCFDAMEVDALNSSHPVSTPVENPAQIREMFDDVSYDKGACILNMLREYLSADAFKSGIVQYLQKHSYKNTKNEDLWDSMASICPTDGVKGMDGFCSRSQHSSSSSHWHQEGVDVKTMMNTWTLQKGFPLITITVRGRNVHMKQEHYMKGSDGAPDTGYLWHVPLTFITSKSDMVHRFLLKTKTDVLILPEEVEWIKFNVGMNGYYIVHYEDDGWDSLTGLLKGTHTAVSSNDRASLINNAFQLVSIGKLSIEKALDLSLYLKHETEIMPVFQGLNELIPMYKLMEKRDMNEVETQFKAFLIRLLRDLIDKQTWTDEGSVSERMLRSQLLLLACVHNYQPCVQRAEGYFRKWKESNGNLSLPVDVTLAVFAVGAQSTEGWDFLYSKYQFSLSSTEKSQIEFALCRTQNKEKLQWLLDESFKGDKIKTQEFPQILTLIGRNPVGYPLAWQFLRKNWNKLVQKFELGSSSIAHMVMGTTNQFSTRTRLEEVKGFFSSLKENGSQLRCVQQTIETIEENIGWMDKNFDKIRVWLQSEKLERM
Experimental: However, as ERAP1 hydrolyses the N-terminal amide bond and tryptophan is released this internal quenching is lost and the reaction is monitored by the increase in tryptophan fluorescence over the course of the assay. For the purposes of this application this assay is referred to as the “10mer inhibition assay” and compound potencies are calculated and expressed as IC50 as would be familiar to a person skilled in the art.
Biological Assay 1: ERAP1 Mediated Hydrolysis of an Amide Substrate Measured in a Biochemical System
Decapeptide WRVYEKC(Dnp)ALK-acid (where Dnp is Dinitrophenyl maleimide) (10-mer) L-Leucine 7-amido-4-methylcoumarin (L-AMC)
12.5 μL ERAP1 enzyme in 1×AB was combined with 250 nL test compound in DMSO. […] For detection, plates were read at excitation 365 nm and emission 442 nm (L-AMC) or excitation 279 nm and emission 355 nm (10-mer).

Row | IC50 [nM] | SMILES
1 | < 5000 | COc1ccc(C(=O)O)cc1S(=O)(=O)Nc1cc(C(F)(F)F)ccc1N1C[C@H](O)[C@@H](F)C1 (relative stereo) [Example 190, 3-(N-(2-(trans-3-fluoro-4-hydroxypyrrolidin-1-yl)-5-(trifluoromethyl)phenyl)sulfamoyl)-4-methoxybenzoic acid]
2 | < 5000 | COc1ccc(C(=O)O)cc1S(=O)(=O)Nc1cc(C(F)(F)F)ccc1N1CC2(CCCO2)C1 [Example 11, 3-(N-(2-(5-oxa-2-azaspiro[3.4]octan-2-yl)-5-(trifluoromethyl)phenyl)sulfamoyl)-4-methoxybenzoic acid]
3 | < 500 | COc1ccc(C(=O)O)cc1S(=O)(=O)Nc1cc(C(F)(F)F)ccc1N1CCC(F)(F)CC1 [Example 12, 3-(N-(2-(4,4-difluoropiperidin-1-yl)-5-(trifluoromethyl)phenyl)sulfamoyl)-4-methoxybenzoic acid]
4 | < 500 | COc1ccc(C(=O)O)cc1S(=O)(=O)Nc1cc(C(F)(F)F)ccc1N1CC2CCC(C1)C2O (centres unmarked) [Example 13, 3-(N-(2-(8-hydroxy-3-azabicyclo[3.2.1]octan-3-yl)-5-(trifluoromethyl)phenyl)sulfamoyl)-4-methoxybenzoic acid]
5 | < 500 | COc1ccc(C(=O)O)cc1S(=O)(=O)Nc1cc(C(F)(F)F)ccc1N1CCC(O)C(F)(F)C1 (centres unmarked) [Example 14, 3-(N-(2-(3,3-difluoro-4-hydroxypiperidin-1-yl)-5-(trifluoromethyl)phenyl)sulfamoyl)-4-methoxybenzoic acid]
6 | < 500 | CCC1(O)CCN(c2ccc(C(F)(F)F)cc2NS(=O)(=O)c2cc(C(=O)O)ccc2OC)CC1 [Example 15, 3-(N-(2-(4-ethyl-4-hydroxypiperidin-1-yl)-5-(trifluoromethyl)phenyl)sulfamoyl)-4-methoxybenzoic acid]

More lines, now with the values behind:

Row | SMILES | IC50 [nM]
7 | CCc1ccc(C(=O)O)cc1S(=O)(=O)Nc1cc(C(F)(F)F)ccc1N1CCCCC1 [Example 1, 4-Ethyl-3-(N-(2-(piperidin-1-yl)-5-(trifluoromethyl)phenyl)sulfamoyl)benzoic acid] | < 500
8 | CC(C)c1ccc(C(=O)O)cc1S(=O)(=O)Nc1cc(C(F)(F)F)ccc1N1CCCCC1 [Example 3, 4-isopropyl-3-(N-(2-(piperidin-1-yl)-5-(trifluoromethyl)phenyl)sulfamoyl)benzoic acid] | < 500
9 | O=C(O)c1ccc(OC(F)(F)F)c(S(=O)(=O)Nc2cc(C(F)(F)F)ccc2N2CCCCC2)c1 [Example 4, 3-(N-(2-(piperidin-1-yl)-5-(trifluoromethyl)phenyl)sulfamoyl)-4-(trifluoromethoxy)benzoic acid] | < 500
10 | COc1ccc(C(=O)O)cc1S(=O)(=O)Nc1cc(C(F)(F)F)ccc1N1C[C@H](C)C[C@H](C)C1 [Example 6, 3-(N-(2-(cis-3,5-dimethylpiperidin-1-yl)-5-(trifluoromethyl)phenyl)sulfamoyl)-4-methoxybenzoic acid] | < 500
11 | COc1ccc(C(=O)O)cc1S(=O)(=O)Nc1cc(C(F)(F)F)ccc1N1CC2CCC(C1)O2 [Example 7, 3-(N-(2-(8-oxa-3-azabicyclo[3.2.1]octan-3-yl)-5-(trifluoromethyl)phenyl)sulfamoyl)-4-methoxybenzoic acid] | < 5000
12 | COc1ccc(C(=O)O)cc1S(=O)(=O)Nc1cc(C(F)(F)F)ccc1N1C[C@H]2CN(C)C[C@H]2C1 [Example 8, 4-methoxy-3-(N-(2-(cis-5-methylhexahydropyrrolo[3,4-c]pyrrol-2 (1H)-yl)-5-(trifluoromethyl)phenyl)sulfamoyl)benzoic acid] | > 5000
13 | COc1ccc(C(=O)O)cc1S(=O)(=O)Nc1cc(C(F)(F)F)ccc1N1CCCC(F)(F)C1 [Example 9, 3-(N-(2-(3,3-difluoropiperidin-1-yl)-5-(trifluoromethyl)phenyl)sulfamoyl)-4-methoxybenzoic acid] | < 500
14 | COc1ccc(C(=O)O)cc1S(=O)(=O)Nc1cc(C(F)(F)F)ccc1N1C2CCCC1CC2 [Example 10, 3-(N-(2-(8-azabicyclo[3.2.1]octan-8-yl)-5-(trifluoromethyl)phenyl)sulfamoyl)-4-methoxybenzoic acid] | < 500
